{"source": "patent US12611423B2", "about": "“Medical use of tafoxiparin” (DILAFOR AB, priority 2022, dated 2026)", "system": "term pregnant, nulliparous women with an unripe cervix", "experiment": "Clinical phase II trial PPL17 (Parts A and B), subcutaneous tafoxiparin vs placebo", "type": "in vivo, human", "conditions": "for Labor induced with PGE-1, % of women: placebo 10.2%; for Fetal distress as indication for operative delivery (ODFD), % of women: placebo 22.7%; for patients with operative delivery, % / women needing instrumental delivery (FIG. 4, vaginal mode of partus): placebo 45.5%; for Labor induced with amniotomy, % of women: placebo 56.8%; for Labor induction with Balloon catheter, % of women: placebo 58.0%; for Labor induced, % of women: placebo 70.5%; for women needing instrumental delivery or caesarian section to reach partus (FIG. 5): placebo 52%; for women reaching partus by vaginal delivery with no need for instrumental delivery nor caesarian section (FIG. 5): placebo 48%; for number of subjects (women) that reach spontaneous onset of labor / subjects (women) that reach spontaneous onset of labor, % of n: cumulative, n = 37", "procedure": "A clinical phase II trial is performed as a randomized, double-blind, placebo-controlled, parallel-group proof of concept study (Part A) with a conditional dose finding follow up study (Part B) to evaluate the efficacy, safety, tolerability and dose response of subcutaneously administered tafoxiparin as a supplement to induction therapy in term pregnant, nulliparous women with an unripe cervix. The study is performed in Sweden and Finland (PPL17), and an EMA (European Medicines Agency) description of the study can be found on the EU Clinical Trials Register web (www.clinicaltrialsregister.eu/ctr-search/search?query=PPL17).\nA total of 170 term pregnant women are randomized to receive either 300 mg of tafoxiparin, or corresponding placebo (vehicle), administered subcutaneously every 24±3 hours and up to a total of 7 doses, or until partus (Part A).\nIn the dose finding follow up study (Part B), a total of 164 term pregnant women are randomized to receive either 75 or 150 mg of tafoxiparin administered subcutaneously every 24±3 hours […] and up to a total of 7 doses, or until partus.\nTo assess the efficacy of tafoxiparin on cervical ripening/cervical ripening rate, during and up to the first seven days of treatment, measured by Bishop score. All women must be examined to check the cervical state before enrollment.\nTafoxiparin/Placebo is supplied by Dilafor AB to the site as kits designed to constitute 300 mg of tafoxiparin or placebo for daily administration. Apart from the active substance, each ml of study drug will constitute 0.015 M phosphate buffer. The study medication kit for each patient will contain 8 doses consisting of 2 vials containing a minimum extractable volume of 1.6 ml of 150 mg/ml of tafoxiparin or placebo. One dose is a reserve dose in case a dose is rendered unusable. The investigational product should be administered subcutaneously every 24±3 hours by the site staff for up to 7 doses, or until partus. At each dosing time 1.0 ml of the drug will be extracted from each of the 2 vials and injected as separate s.c. injections in the abdominal or hip region.\nTafoxiparin/Placebo is supplied by Dilafor AB to the site as kits designed to constitute 75 or 150 mg of tafoxiparin for daily administration. Apart from the active substance, each ml of study drug will constitute 0.015 M phosphate buffer. The study medication kit for each patient will contain 8 doses consisting of 2 vials for each injection occasion containing a minimum extractable volume of 1.6 ml of 150 mg/ml of tafoxiparin or placebo. For subjects receiving 75 mg of tafoxiparin, one vial will contain active substance and one containing placebo. For subjects receiving 150 mg of tafoxiparin, both vials will contain active substance. One dose is a reserve dose in case a dose is rendered unusable. The investigational product should be administered subcutaneously every 24±3 hours by the site staff for up to 7 doses, or until partus. At each dosing time, 0.5 ml of the drug will be extracted from each of the 2 vials and injected as separate s.c. injections in the abdominal or hip region.\nIf the subject is found to be eligible for the study, they will be randomized to study treatment, i.e. 300 mg of tafoxiparin or corresponding placebo daily (Part A), or 75 or 150 mg daily (Part B).\nThe study medication will be administered subcutaneously in the abdominal or hip region for up to a total of 7 doses or until labor induction or spontaneous onset of labor. If the cervix is still unripe after 7 doses of IMP, the patient is given cervical balloon catheter as a mean of labor induction.\nSubjects who enter into spontaneous onset of labor after 1-7 doses of IMP should be managed according to clinical routines.\nSubjects who are given 4-7 doses without entering into spontaneous onset of labor, but with a ripe cervix (Bishop Score ≥6), should be induced into labor by amniotomy and oxytocin treatment, but not before 4 treatment doses have been given. […]", "data": [{"substance": "tafoxiparin", "values": [{"measurement": "Labor induced with oxytocin, number of women", "setting": "150 mg, n = 85", "value": 38}, {"measurement": "Labor induced, number of women", "setting": "150 mg, n = 85", "value": 48}, {"measurement": "Labor induction with Balloon catheter, number of women", "setting": "150 mg, n = 85", "value": 37}, {"measurement": "Number of patients with operative delivery", "setting": "150 mg, n = 85", "value": 41}, {"measurement": "Labor induced with PGE-1, % of women", "setting": "150 mg, n = 85", "value": 8.2, "unit": "%"}, {"measurement": "Fetal distress as indication for operative delivery (ODFD), % of women", "setting": "150 mg, n = 85", "value": 23.5, "unit": "%"}, {"measurement": "patients with operative delivery, %", "setting": "150 mg, n = 85", "value": 48.2, "unit": "%"}, {"measurement": "Labor induced with oxytocin, % of women", "setting": "150 mg, n = 85, placebo 54.5%", "value": 44.7, "unit": "%"}, {"measurement": "Labor induced with amniotomy, % of women", "setting": "150 mg, n = 85", "value": 45.9, "unit": "%"}, {"measurement": "Labor induction with Balloon catheter, % of women", "setting": "150 mg, n = 85", "value": 43.5, "unit": "%"}, {"measurement": "Labor induced, % of women", "setting": "150 mg, n = 85", "value": 56.5, "unit": "%"}, {"measurement": "women needing instrumental delivery (FIG. 4, vaginal mode of partus)", "setting": "150 mg, women with spontaneous onset of labor, 9 of the 32 women, p-value 0.422", "value": 28.1, "unit": "%"}, {"measurement": "women needing instrumental delivery or caesarian section to reach partus (FIG. 5)", "setting": "150 mg, women with spontaneous onset of labor, 13 of 36 women", "value": 36.1, "unit": "%"}, {"measurement": "women reaching partus by vaginal delivery with no need for instrumental delivery nor caesarian section (FIG. 5)", "setting": "150 mg, women with spontaneous onset of labor, 23 of 36 women", "value": 63.9, "unit": "%"}, {"measurement": "time point of spontaneous onset of labor (FIG. 3, change of Bishop score)", "setting": "300 mg and 150 mg, women with spontaneous onset of labor", "value": "achieved spontaneous onset of labor at an earlier time point than women treated with 75 mg tafoxiparin and placebo"}, {"measurement": "women achieving spontaneous onset of labor (FIG. 1)", "setting": "300 mg s.c. once daily up to 7 doses, 37 women of 90, p-value=0.089 (part A 0.080), placebo 28.7%", "value": 41.1, "unit": "%"}, {"measurement": "development day-by-day towards a spontaneous onset of labor", "setting": "300 mg, 150 mg, 75 mg, Table 3", "value": "shows a dose-response relationship"}, {"measurement": "women reaching spontaneous onset of labor with uncomplicated delivery", "setting": "300 mg, 27 of the 33 women, placebo 54.5%", "value": 81.8, "unit": "%"}, {"measurement": "number of subjects (women) that reach spontaneous onset of labor", "setting": "300 mg, Study day 1", "value": 2}, {"measurement": "subjects (women) that reach spontaneous onset of labor, % of n", "setting": "300 mg, Study day 1", "value": "(5%)"}, {"measurement": "number of subjects (women) that reach spontaneous onset of labor", "setting": "300 mg, Study day 2", "value": 11}, {"measurement": "subjects (women) that reach spontaneous onset of labor, % of n", "setting": "300 mg, Study day 2", "value": "(30%)"}, {"measurement": "number of subjects (women) that reach spontaneous onset of labor", "setting": "300 mg, Study day 3", "value": 18}, {"measurement": "subjects (women) that reach spontaneous onset of labor, % of n", "setting": "300 mg, Study day 3", "value": "(49%)"}, {"measurement": "number of subjects (women) that reach spontaneous onset of labor", "setting": "300 mg, Study day 4", "value": 23}, {"measurement": "subjects (women) that reach spontaneous onset of labor, % of n", "setting": "300 mg, Study day 4", "value": "(62%)"}, {"measurement": "number of subjects (women) that reach spontaneous onset of labor", "setting": "300 mg, Study day 5", "value": 30}, {"measurement": "subjects (women) that reach spontaneous onset of labor, % of n", "setting": "300 mg, Study day 5", "value": "(81%)"}, {"measurement": "number of subjects (women) that reach spontaneous onset of labor", "setting": "300 mg, Study day 6", "value": 34}, {"measurement": "subjects (women) that reach spontaneous onset of labor, % of n", "setting": "300 mg, Study day 6", "value": "(92%)"}, {"measurement": "number of subjects (women) that reach spontaneous onset of labor", "setting": "300 mg, Study day 7", "value": 37}, {"measurement": "subjects (women) that reach spontaneous onset of labor, % of n", "setting": "300 mg, Study day 7", "value": "(100%)"}, {"measurement": "Fetal distress as indication for operative delivery (ODFD), number of women", "setting": "300 mg, n = 91", "value": 11}, {"measurement": "Labor induced with PGE-1, number of women", "setting": "300 mg, n = 91", "value": 5}, {"measurement": "Labor induced with amniotomy, number of women", "setting": "300 mg, n = 91", "value": 50}, {"measurement": "Labor induced with oxytocin, number of women", "setting": "300 mg, n = 91", "value": 45}, {"measurement": "Labor induced, number of women", "setting": "300 mg, n = 91", "value": 53}, {"measurement": "Labor induction with Balloon catheter, number of women", "setting": "300 mg, n = 91", "value": 42}, {"measurement": "Number of patients with operative delivery", "setting": "300 mg, n = 91", "value": 32}, {"measurement": "Labor induced with PGE-1, % of women", "setting": "300 mg, n = 91", "value": 5.5, "unit": "%"}, {"measurement": "Fetal distress as indication for operative delivery (ODFD), % of women", "setting": "300 mg, n = 91", "value": 12.1, "unit": "%"}, {"measurement": "patients with operative delivery, %", "setting": "300 mg, n = 91", "value": 35.2, "unit": "%"}, {"measurement": "Labor induced with oxytocin, % of women", "setting": "300 mg, n = 91, placebo 54.5%", "value": 49.5, "unit": "%"}, {"measurement": "Labor induced with amniotomy, % of women", "setting": "300 mg, n = 91", "value": 54.9, "unit": "%"}, {"measurement": "Labor induction with Balloon catheter, % of women", "setting": "300 mg, n = 91", "value": 46.2, "unit": "%"}, {"measurement": "Labor induced, % of women", "setting": "300 mg, n = 91", "value": 58.2, "unit": "%"}, {"measurement": "women needing instrumental delivery (FIG. 4, vaginal mode of partus)", "setting": "300 mg, women with spontaneous onset of labor, 6 of the 33 women, p-value=0.048 (part A 0.053)", "value": 18.2, "unit": "%"}, {"measurement": "women needing instrumental delivery or caesarian section to reach partus (FIG. 5)", "setting": "300 mg, women with spontaneous onset of labor, 10 of the 37 women", "value": 27, "unit": "%"}, {"measurement": "women reaching partus by vaginal delivery with no need for instrumental delivery nor caesarian section (FIG. 5)", "setting": "300 mg, women with spontaneous onset of labor, 27 of the 37 women", "value": 73, "unit": "%"}, {"measurement": "effect on achieving spontaneous onset of labor", "setting": "all three doses 300 mg, 150 mg and 75 mg", "value": "effective for achieving spontaneous onset of labor"}, {"measurement": "effect on mode of partus", "setting": "all three doses 300 mg, 150 mg and 75 mg, compared to placebo", "value": "effective for a person to reach partus by vaginal delivery and with less need for instrumental delivery or caesarian section"}, {"measurement": "effect on need for instrumental delivery", "setting": "all three doses (300 mg, 150 mg and 75 mg), women with spontaneous onset of labor, compared to placebo", "value": "effective in reducing the need for instrumental delivery"}, {"measurement": "effect on need for intervention to achieve onset of labor", "setting": "all three doses, compared to placebo", "value": "reduced the need for intervention in order to achieve onset of labor"}, {"measurement": "time point of achieving a ripe cervix", "setting": "any one of the three doses 75 mg, 150 mg and 300 mg, vs placebo", "value": "achieve a ripe cervix at an earlier time point than women that have been treated with placebo"}, {"measurement": "need for operative delivery (caesarean section and instrumental delivery) due to fetal distress", "setting": "conclusion of the clinical study", "value": "reduction of the need for operative delivery"}, {"measurement": "effect on cervical ripening (FIG. 3)", "setting": "doses 300 mg and 150 mg", "value": "beneficial effect on cervical ripening"}, {"measurement": "estimated cervical ripening rate measured by Bishop score (FIG. 6)", "setting": "first 7 days of treatment, all three doses (300 mg, 150 mg and 75 mg) compared to placebo", "value": "higher"}, {"measurement": "labor time up to vaginal delivery (partus) (FIG. 2, Kaplan-Meier)", "setting": "women with spontaneous onset of labor, 300 mg (p=0.070), 150 mg (p 0.654), 75 mg (p 0.114) vs placebo", "value": "shorter labor time up to vaginal delivery (partus) compared to placebo"}]}]}
